The record followed here is US7192924B2, “Corticotropin releasing factor 2 receptor agonists” (priority 2002, dated 2007).

A word on the EC50: it is the midpoint of the concentration-response curve.

The target of one assay is T1, CRF2R (Homo sapiens, UniProt Q13324).
T1 sequence (Q13324 1-411): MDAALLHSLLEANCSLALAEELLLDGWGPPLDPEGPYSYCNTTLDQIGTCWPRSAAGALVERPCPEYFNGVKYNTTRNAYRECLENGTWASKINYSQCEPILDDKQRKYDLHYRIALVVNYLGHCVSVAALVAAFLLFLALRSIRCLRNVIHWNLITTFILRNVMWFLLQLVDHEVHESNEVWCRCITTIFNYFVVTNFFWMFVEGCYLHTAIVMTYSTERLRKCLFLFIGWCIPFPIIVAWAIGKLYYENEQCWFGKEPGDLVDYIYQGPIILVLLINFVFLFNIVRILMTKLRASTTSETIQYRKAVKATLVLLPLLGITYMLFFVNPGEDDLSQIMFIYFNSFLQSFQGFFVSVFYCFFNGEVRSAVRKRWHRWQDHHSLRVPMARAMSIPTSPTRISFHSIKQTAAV
Nature of the assay: CRF2R agonist activity (EC50, Emax), called comparative CRF binding. The format is cell-based. As to conditions: read-out: CRF2R EC50. The text has this:
(§1) The pharmacological activity and selectivity of the peptides of present invention can be determined using published test procedures. See, e.g, U.S. patent application Ser. No. 09/799,978. Because CRF2R and CRF1R are homologous proteins, it is expected that a certain proportion of agonists for CRF2R will also function as agonists of CRF1R. As discussed above, activation of CRF1R induces activation of the HPA axis since increased corticosteroid production leads to skeletal muscle atrophy. In most cases in which an increase in muscle mass or function is desired, it is not desirable to activate the HPA axis.
(§2) Because it is desirable to discriminate binding between CRF2R, as compared with CRF1R, the assays described above may be conducted using a cell, or membrane from a cell, which expresses only CRF2R or the assays can be conducted with a recombinant source of CRF2R. Cells expressing both forms of CRFR may be modified using homologous recombination to inactivate or otherwise disable the CRF1R gene. Alternatively, if the source of CRFR contains more than one CRFR type, the background signal produced by the receptor which is not of interest must be subtracted from the signal obtained in the assay. […] Known antagonists of CRFRs include, but, are not limited to, antalarmin (CRF1R selective), antisauvagine-30 (CRF2R selective) and astressin (nonselective for CRF1R/CRF2R).
(§3) Cell-based assays include the steps of contacting cells which express CRF1R or CRF2R with a peptide of the present invention or control and measuring activation of the CRFR by measuring the expression or activity of components of the CRFR signal transduction pathways.
(§4) As described in the background section above, CRFRs appear to couple through several different pathways including Gαs, Gαq or Gαi, depending upon the cell type. It is thought that agonist activation of CRFR allows the receptor to signal via any of these pathways, provided that the necessary pathway components are present in the particular cell type. Thus, to assay a particular peptide of the present invention for CRFR activation, an assay can use any of the signal transduction pathways as the readout even if the relevant cell type for treatment, in vivo, couples CRFR to skeletal muscle atrophy via a different pathway. […] Assays for measuring activation of these signaling pathways are known in the art.
(§5) For example, after contact with a peptide of the present invention, lysates of the cells can be prepared and assayed for induction of cAMP. cAMP is induced in response to Gαs activation. Because Gαs is activated by receptors other than CRFR and because a test peptide may be exerting its effect through CRFRs or by another mechanism, two control comparisons are relevant for determining whether the peptide increases levels of cAMP via activation of a CRFR. One control compares the cAMP level of cells contacted with the peptide and the cAMP level of cells contacted with a control compound (i.e., the vehicle in which the peptide is dissolved).
(§6) In one example, cAMP induction is measured with the use of DNA constructs containing the cAMP responsive element linked to any of a variety of reporter genes can be introduced into cells expressing CRFRs. Such reporter genes include, but are not limited to, chloramphenicol acetyltransferase (CAT), luciferase, glucuronide synthetase, growth hormone, fluorescent proteins (e.g., Green Fluorescent Protein), or alkaline phosphatase. Following exposure of the cells to the peptide, the level of reporter gene expression can be quantitated to determine the peptide's ability to increase cAMP levels and thus determine the peptide's ability to activate the CRFR.
(§7) In addition to using cells expressing full length CRFRs, cells can be engineered which express CRFRs containing the ligand binding domain of the receptor coupled to, or physically modified to contain, reporter elements or to interact with signaling proteins.

The next assay concerns the target T2, CRF1R (Homo sapiens, UniProt P34998).
T2 sequence (P34998 24-415): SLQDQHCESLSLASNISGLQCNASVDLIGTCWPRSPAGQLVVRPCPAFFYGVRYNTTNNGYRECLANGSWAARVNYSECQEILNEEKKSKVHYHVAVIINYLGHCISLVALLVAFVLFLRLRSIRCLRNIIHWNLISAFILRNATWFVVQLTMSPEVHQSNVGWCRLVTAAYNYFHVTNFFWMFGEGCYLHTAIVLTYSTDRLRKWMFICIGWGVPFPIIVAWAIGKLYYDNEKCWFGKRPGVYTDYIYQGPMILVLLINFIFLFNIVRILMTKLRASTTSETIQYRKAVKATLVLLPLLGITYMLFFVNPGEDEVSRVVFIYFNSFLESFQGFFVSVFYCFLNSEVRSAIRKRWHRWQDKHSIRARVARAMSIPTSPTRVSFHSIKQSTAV
The assay can be described thus: CRF1R agonist activity (EC50, Emax), called comparative CRF binding. As to conditions: read-out: CRF1R EC50. The assay is classed as cell-based.
Source text: as §1, §2, §3, §4, §5, §6, §7

Peptide text beside a SMILES is read from it.

Turning to `CC[C@H](C)[C@H](N)C(=O)N[C@H](C(=O)N[C@@H](CC(C)C)C(=O)N[C@@H](CO)C(=O)N[C@@H](CC(C)C)C(=O)N[C@@H](CC(=O)O)C(=O)N[C@H](C(=O)N1CCC[C@H]1C(=O)N[C@H](C(=O)NCC(=O)N[C@@H](CC(C)C)C(=O)N[C@@H](CC(C)C)C(=O)N[C@@H](CCC(N)=O)C(=O)N[C@H](C(=O)N[C@@H](CC(C)C)C(=O)N[C@@H](CC(C)C)C(=O)N[C@@H](CCC(=O)O)C(=O)N[C@@H](CCC(N)=O)C(=O)N[C@@H](CCC(=O)O)C(=O)N[C@@H](CCCCN)C(=O)N[C@@H](CCC(N)=O)C(=O)N[C@@H](CCCNC(=N)N)C(=O)N[C@@H](C)C(=O)N[C@@H](C)C(=O)N[C@@H](CCCNC(=N)N)C(=O)N[C@@H](CCC(=O)O)C(=O)N[C@@H](CCC(N)=O)C(=O)N[C@@H](C)C(=O)N[C@H](C(=O)N[C@H](C(=O)N[C@@H](CC(N)=O)C(=O)N[C@@H](C)C(=O)N[C@@H](CCCNC(=N)N)C(=O)N[C@H](C(=O)N[C@@H](CC(C)C)C(=O)N[C@@H](C)C(=O)N[C@@H](CCCNC(=N)N)C(=O)N[C@H](C(N)=O)C(C)C)[C@@H](C)CC)[C@@H](C)O)[C@@H](C)O)[C@@H](C)CC)[C@@H](C)CC)C(C)C)C(C)C` [compound 115] (H-IVLSLDVPIGLLQILLEQEKQRAAREQATTNARILARV-NH2; N-terminus assumed), the EC50 at CRF2R was 0.0136 µM; at CRF1R, more than 0.1 µM.
On to `CC[C@H](C)[C@H](N)C(=O)N[C@H](C(=O)N[C@@H](CC(C)C)C(=O)N[C@@H](CO)C(=O)N[C@@H](CC(C)C)C(=O)N[C@@H](CC(=O)O)C(=O)N[C@H](C(=O)N1CCC[C@H]1C(=O)N[C@H](C(=O)NCC(=O)N[C@@H](CC(C)C)C(=O)N[C@@H](CC(C)C)C(=O)N[C@@H](CCC(N)=O)C(=O)N[C@H](C(=O)N[C@@H](CC(C)C)C(=O)N[C@@H](CC(C)C)C(=O)N[C@@H](CCC(=O)O)C(=O)N[C@@H](CCC(N)=O)C(=O)N[C@@H](CCC(=O)O)C(=O)N[C@@H](CCCNC(=N)N)C(=O)N[C@@H](CCC(N)=O)C(=O)N[C@@H](CCC(=O)O)C(=O)N[C@@H](C)C(=O)N[C@@H](C)C(=O)N[C@@H](CCCNC(=N)N)C(=O)N[C@@H](CCC(=O)O)C(=O)N[C@@H](CCC(N)=O)C(=O)N[C@@H](C)C(=O)N[C@H](C(=O)N[C@H](C(=O)N[C@@H](CC(N)=O)C(=O)N[C@@H](C)C(=O)N[C@@H](CCCNC(=N)N)C(=O)N[C@H](C(=O)N[C@@H](CC(C)C)C(=O)N[C@@H](C)C(=O)N[C@@H](CCCNC(=N)N)C(=O)N[C@H](C(N)=O)C(C)C)[C@@H](C)CC)[C@@H](C)O)[C@@H](C)O)[C@@H](C)CC)[C@@H](C)CC)C(C)C)C(C)C` [compound 118] (H-IVLSLDVPIGLLQILLEQERQEAAREQATTNARILARV-NH2; N-terminus assumed), for which the EC50 was 0.0146 µM on CRF2R and more than 0.1 µM on CRF1R.
With `CC[C@H](C)[C@H](N)C(=O)N[C@H](C(=O)N[C@@H](CC(C)C)C(=O)N[C@@H](CO)C(=O)N[C@@H](CC(C)C)C(=O)N[C@@H](CC(=O)O)C(=O)N[C@H](C(=O)N1CCC[C@H]1C(=O)N[C@H](C(=O)NCC(=O)N[C@@H](CC(C)C)C(=O)N[C@@H](CC(C)C)C(=O)N[C@@H](CCC(N)=O)C(=O)N[C@H](C(=O)N[C@@H](CC(C)C)C(=O)N[C@@H](CC(C)C)C(=O)N[C@@H](CCC(=O)O)C(=O)N[C@@H](CCC(N)=O)C(=O)N[C@@H](CCC(=O)O)C(=O)N[C@@H](CCCCN)C(=O)N[C@@H](C)C(=O)N[C@@H](CCCNC(=N)N)C(=O)N[C@@H](C)C(=O)N[C@@H](C)C(=O)N[C@@H](CCCNC(=N)N)C(=O)N[C@@H](CCC(=O)O)C(=O)N[C@@H](CCC(N)=O)C(=O)N[C@@H](C)C(=O)N[C@H](C(=O)N[C@H](C(=O)N[C@@H](CC(N)=O)C(=O)N[C@@H](C)C(=O)N[C@@H](CCCNC(=N)N)C(=O)N[C@H](C(=O)N[C@@H](CC(C)C)C(=O)N[C@@H](C)C(=O)N[C@@H](CCCNC(=N)N)C(=O)N[C@H](C(N)=O)C(C)C)[C@@H](C)CC)[C@@H](C)O)[C@@H](C)O)[C@@H](C)CC)[C@@H](C)CC)C(C)C)C(C)C` [compound 121] (H-IVLSLDVPIGLLQILLEQEKARAAREQATTNARILARV-NH2), the EC50 on CRF2R is 0.00567 µM; at CRF1R it was more than 0.1 µM.
Take `CC[C@H](C)[C@H](N)C(=O)N[C@H](C(=O)N[C@@H](CC(C)C)C(=O)N[C@@H](CO)C(=O)N[C@@H](CC(C)C)C(=O)N[C@@H](CC(=O)O)C(=O)N[C@H](C(=O)N1CCC[C@H]1C(=O)N[C@H](C(=O)NCC(=O)N[C@@H](CC(C)C)C(=O)N[C@@H](CC(C)C)C(=O)N[C@@H](CCC(N)=O)C(=O)N[C@H](C(=O)N[C@@H](CC(C)C)C(=O)N[C@@H](CC(C)C)C(=O)N[C@@H](CCC(=O)O)C(=O)N[C@@H](CCC(N)=O)C(=O)N[C@@H](C)C(=O)N[C@@H](CCCNC(=N)N)C(=O)N[C@@H](C)C(=O)N[C@@H](CCC(=O)O)C(=O)N[C@@H](C)C(=O)N[C@@H](C)C(=O)N[C@@H](CCCNC(=N)N)C(=O)N[C@@H](CCC(=O)O)C(=O)N[C@@H](CCC(N)=O)C(=O)N[C@@H](C)C(=O)N[C@H](C(=O)N[C@H](C(=O)N[C@@H](CC(N)=O)C(=O)N[C@@H](C)C(=O)N[C@@H](CCCNC(=N)N)C(=O)N[C@H](C(=O)N[C@@H](CC(C)C)C(=O)N[C@@H](C)C(=O)N[C@@H](CCCNC(=N)N)C(=O)N[C@H](C(N)=O)C(C)C)[C@@H](C)CC)[C@@H](C)O)[C@@H](C)O)[C@@H](C)CC)[C@@H](C)CC)C(C)C)C(C)C` [compound 122] (H-IVLSLDVPIGLLQILLEQARAEAAREQATTNARILARV-NH2; N-terminus assumed): the values for the EC50 on CRF2R and on CRF1R were 0.00331 µM and not below 1 µM, respectively.
